8 compounds from patent US11059848B2, “Artemisinic acid glycoconjugate compounds, process for preparation and use thereof” (Council of Scientific and Industrial Research, priority 2018, dated 2021) can be followed below.

The subject of data set [1] is MCF7 (breast cancer cell line). Put plainly: Growth inhibition by MTT cytotoxicity assay, in vitro anticancer activity. Type of data set: cell-based. The protocol:
Compounds were dissolved in DMSO (Sigma) to prepare 50 mM concentrations stock solutions. All the further dilutions were also made in DMSO. During the treatment, the final concentration of DMSO was maintained <[…].
Breast cancer cell line MCF7, maintained at NCCS, a national resource for providing cell lines, was grown in DMEM (GIBCO), MBA-MB-231 in RPMI (GIBCO) with 10% FBS, 100 U/mL penicillin and 100 μg/mL streptomycin and MCF10A in DMEM/F12 (Gibco) containing, horse Serum (10% final), EGF (20 ng/ml), Hydrocortisone ([…]), Cholera Toxin (100 ng/ml), Insulin (10 μg/ml) and Penicillin/Streptomycin mix (1 ml/100 ml) at 37° C. in a humid, 5% CO2 regulated incubator.
The cytotoxic effect of the compounds was determined using MTT (3-(4, 5 dimethylthiazol-2-yl)-2-5 diphenyltetrazolium bromide) assay. Cells were seeded (4×10^3 per well) in 96 well plates. After 24 hours of seeding, cells were exposed with varying concentrations ([…]) of respective compounds for 48 hours in triplicates. Then, MTT solution (20 μL of 5 mg/mL stock for each well of 96 well plate) was added and further incubated for 3.5 hours in humid 5% CO2 incubator. Media containing MTT solution was then replaced by MTT solvent (iso-propanol, HCl and Triton X-100), incubated for 15 min at room temperature with gentle shaking for complete dissolution of Formazan. Absorbance was measured at 570 nm using a Thermo Scientific Multiskan GO Elisa plate reader and IC 50 was calculated by routine methods. All experiments were carried out at least in triplicate, and the percentage of viable cells was calculated as the mean with respect to the controls.

The mark [2] stands for this setting: Homo sapiens, MCF7 breast cancer cell line, MTT, 48 hours exposure, Table 1, read-out: IC50.
Setting [3] is: MCF7 breast cancer cell line, MTT, 48 hours exposure, table of Example 4, read-out: IC50.

Like-named read-outs stand apart in the source and are kept apart here.

In the case of `C=C(C(=O)OCc1cn([C@@H]2O[C@H](COC(C)=O)[C@H](OC(C)=O)[C@H](OC(C)=O)[C@H]2OC(C)=O)nn1)[C@@H]1CC[C@@H](C)[C@@H]2CCC(C)=C[C@@H]21` [KTK-AA-2, (2R,3S,4S,5R,6R)-2-(acetoxymethyl)-6-(4-(((2-((1R,4R,4aS,8aR)-4,7-dimethyl-1,2,3,4,4a,5,6,8a-octahydronaphthalen-1-yl)acryloyl)oxy)methyl)-1H-1,2,3-triazol-1-yl)tetrahydro-2H-pyran-3,4,5-triyl triacetate], the half-inhibitory concentration (IC50) in data set [1] (setting [2]) and in data set [1] (setting [3]) was over 100 µM each time.

With `C=C(C(=O)OCc1cn([C@@H]2O[C@H](COC(C)=O)[C@@H](OC(C)=O)[C@H](OC(C)=O)[C@H]2OC(C)=O)nn1)[C@@H]1CC[C@@H](C)[C@@H]2CCC(C)=C[C@@H]21` [KTK-AA-4, (2R,3R,4S,5R,6R)-2-(acetoxymethyl)-6-(4-(((2-((1R,4R,4aS,8aR)-4,7-dimethyl-1,2,3,4,4a,5,6,8a-octahydronaphthalen-1-yl)acryloyl)oxy)methyl)-1H-1,2,3-triazol-1-yl)tetrahydro-2H-pyran-3,4,5-triyl triacetate], the 50% inhibitory concentration (IC50) in data set [1] (setting [2]) and in data set [1] (setting [3]) was over 100 µM each time.

As for `C=C(C(=O)OCc1cn([C@@H]2O[C@H](COC(=O)c3ccccc3)[C@H](OC(=O)c3ccccc3)[C@H](OC(=O)c3ccccc3)[C@H]2OC(=O)c2ccccc2)nn1)[C@@H]1CC[C@@H](C)[C@@H]2CCC(C)=C[C@@H]21` [KTK-AA-6, (2R,3S,4S,5R,6R)-2-((benzoyloxy)methyl)-6-(4-(((2-((1R,4R,4aS,8aR)-4,7-dimethyl-1,2,3,4,4a,5,6,8a-octahydronaphthalen-1-yl)acryloyl)oxy)methyl)-1H-1,2,3-triazol-1-yl)tetrahydro-2H-pyran-3,4,5-triyl tribenzoate], the half-maximal inhibitory concentration (IC50) in data set [1] (setting [2]) and in data set [1] (setting [3]) was over 100 µM throughout.

`C=C(C(=O)OCc1cn([C@@H]2O[C@@H](C)[C@H](OC(C)=O)[C@@H](OC(C)=O)[C@H]2OC(C)=O)nn1)[C@@H]1CC[C@@H](C)[C@@H]2CCC(C)=C[C@@H]21` [KTK-AA-7, (2R,3R,4R,5S,6S)-2-(4-(((2-((1R,4R,4aS,8aR)-4,7-Dimethyl-1,2,3,4,4a,5,6,8a-octahydronaphthalen-1-yl)acryloyl)oxy)methyl)-1H-1,2,3-triazol-1-yl)-6-methyltetrahydro-2H-pyran-3,4,5-triyl triacetate] showed a melting point of 89 to 92 °C. In addition, the half-inhibitory concentration (IC50) in data set [1] (Homo sapiens, MCF7, MCF-7 breast cancer cell line, read-out: IC50 value, anticancer activity against MCF-7) is 42 µM. The half-maximal inhibitory concentration (IC50) in data set [1] (setting [2]) turned out to be 42 ± 2 µM. The “IC50 value less when compared with artimisinic acid” value in data set [1] (MCF7, reduction of IC50 relative to artimisinic acid) is given as “more than 50%”.

As for `C=C(C(=O)O)[C@@H]1CC[C@@H](C)[C@@H]2CCC(C)=C[C@@H]21` [KTK-AA- Artimisinic acid, Artemisinic acid], the IC50 in data set [1] (setting [2]) and in data set [1] (setting [3]) was over 100 µM throughout.

On to `C=C(C(=O)NCc1cn([C@@H]2O[C@H](COC(C)=O)[C@@H](OC(C)=O)[C@H](OC(C)=O)[C@H]2OC(C)=O)nn1)[C@@H]1CC[C@@H](C)[C@@H]2CCC(C)=C[C@@H]21` [KTK-PA-2, (2R,3R,4S,5R,6R)-2-(acetoxymethyl)-6-(4-((2-((1R,4R,4aS,8aR)-4,7-dimethyl-1,2,3,4,4a,5,6,8a-octahydronaphthalen-1-yl)acrylamido)methyl)-1H-1,2,3-triazol-1-yl)tetrahydro-2H-pyran-3,4,5-triyl triacetate], for which the IC50 in data set [1] (setting [2]) and in data set [1] (setting [3]) was over 100 µM each time.

Consider `C=C(C(=O)NCc1cn([C@@H]2O[C@H](COC(C)=O)[C@H](OC(C)=O)[C@H](OC(C)=O)[C@H]2OC(C)=O)nn1)[C@@H]1CC[C@@H](C)[C@@H]2CCC(C)=C[C@@H]21` [KTK-PA-3, (2R,3S,4S,5R,6R)-2-(acetoxymethyl)-6-(4-((2-((1R,4R,4aS,8aR)-4,7-dimethyl-1,2,3,4,4a,5,6,8a-octahydronaphthalen-1-yl)acrylamido)methyl)-1H-1,2,3-triazol-1-yl)tetrahydro-2H-pyran-3,4,5-triyl triacetate], for which the IC50 in data set [1] (setting [2]) and in data set [1] (setting [3]) was over 100 µM each time.

For `C=C(C(=O)NCc1cn([C@@H]2O[C@H](COC(=O)c3ccccc3)[C@@H](OC(=O)c3ccccc3)[C@H](OC(=O)c3ccccc3)[C@H]2OC(=O)c2ccccc2)nn1)[C@@H]1CC[C@@H](C)[C@@H]2CCC(C)=C[C@@H]21` [KTK-PA-4, (2R,3R,4S,5R,6R)-2-((benzoyloxy)methyl)-6-(4-((2-((1R,4R,4aS,8aR)-4,7-dimethyl-1,2,3,4,4a,5,6,8a-octahydronaphthalen-1-yl)acrylamido)methyl)-1H-1,2,3-triazol-1-yl)tetrahydro-2H-pyran-3,4,5-triyl tribenzoate], the IC50 in data set [1] (setting [2]) and in data set [1] (setting [3]) was over 100 µM in each case.

Broadly, the IC50 is the concentration that inhibits the measured activity by half. What is called melting point is the temperature of the solid-liquid transition.
